Experimental data: patent publication US20040214803A1, “Use of vitamin d3 analogue for the treatment of autoimmune diabetes” (priority 2001, published 2004)

Columns and labels:
NOD mice = conditions: cited from earlier work
IL-12 = conditions: cited from earlier work
IL-12p75 = conditions: short treatment; Mattner et al. 2000; cited from earlier work
[1] = test system: vascularized heart allograft; assay: Vascularized heart allograft survival, C57BL/6 into BALB/c recipients; assay type: in vivo, mouse; conditions: Dose 5 (unit not given) per os 3x/w every other day from d-1 until d+30
Description: Fully vascularized hearts were grafted into the abdomen of recipient mice as described (Corry, R. J., H. J. Winn, and P. S. Russell. Primarily vascularized allografts of hearts in mice. The role of H-2D, H-2K, and non-H-2 antigens in rejection. Transplantation. 1973, 16:343). Graft survival was monitored by palpation and rejection was confirmed by direct graft inspection.

[2] = administered to NOD mice starting from three weeks of age

## C=C1/C(=C\C=C2/CCC[C@]3(C)[C@@H]([C@H](C)CCCC(C)(C)O)CC[C@@H]23)C[C@@H](O)C[C@@H]1O [1,25(OH)2D3, 1,25-dihydroxyvitamin D3]
NOD mice; administered to NOD mice from 8 weeks of age
  preventing progression of diabetes: ineffective
NOD mice; [2]
  incidence of insulitis: reduces the incidence of insulitis
  type 1 DM development: prevents type 1 DM development
IL-12
  IL-12 production: inhibits IL-12 production
IL-12p75
  LPS-induced serum levels of both cytokines (IL-12, IFN-γ): can be inhibited

## C=C1/C(=C\C=C2/CCC[C@@]3(C)C2CCC3[C@@H](C)CCCC(C)(C)O)C[C@@H](O)C[C@@H]1O (stereo partly shown) [MC1288]
NOD mice; treatment of 8 week-old NOD mice, combined or alone
  incidence of disease: neither treatment alone was effective

## C=C1/C(=C\C=C2/CCC[C@@]3(C)C2CCC3[C@H](C)CCCC(C)(C)O)C[C@@H](O)C[C@@H]1O (stereo partly shown) [Reference, reference compound]
[1]
  Graft survival (days) Mean: 14.33 days
